Patent US8257965B2, “Arrays of biological membranes and methods and use thereof” (Corning Incorporated, priority 2001, dated 2012)

Key:
β1 = β1 (Homo sapiens, UniProt P08588); assay: Family-specific adrenergic receptor array, competition with BODIPY-TMR-CGP12177; format: binding
Description: FIGS. 9A, 9B and 9C illustrate GPCR theme arrays used to differentiate the selectivity of compounds of interest to receptors relating to a single subfamily. Multiple arrays of β1, β2 and α2A were fabricated on an APTES-modified gold surface. Within each array there were three columns of five replicates, corresponding to β1, β2 and α2A from the left to right column, respectively. The array incubated with 5 nM BT-CGP only was used as positive control (FIG. 9A). […] Three receptors belonging to the same family, adrenergic receptors, were arrayed within a single grid, and replicates of this grid were arrayed on a single slide. The receptors were β1, β2 and α2A, respectively.

α2A = target: T1, α2A (Homo sapiens, UniProt P08913); details: known value; cited from earlier work
T1 sequence (P08913 1-465): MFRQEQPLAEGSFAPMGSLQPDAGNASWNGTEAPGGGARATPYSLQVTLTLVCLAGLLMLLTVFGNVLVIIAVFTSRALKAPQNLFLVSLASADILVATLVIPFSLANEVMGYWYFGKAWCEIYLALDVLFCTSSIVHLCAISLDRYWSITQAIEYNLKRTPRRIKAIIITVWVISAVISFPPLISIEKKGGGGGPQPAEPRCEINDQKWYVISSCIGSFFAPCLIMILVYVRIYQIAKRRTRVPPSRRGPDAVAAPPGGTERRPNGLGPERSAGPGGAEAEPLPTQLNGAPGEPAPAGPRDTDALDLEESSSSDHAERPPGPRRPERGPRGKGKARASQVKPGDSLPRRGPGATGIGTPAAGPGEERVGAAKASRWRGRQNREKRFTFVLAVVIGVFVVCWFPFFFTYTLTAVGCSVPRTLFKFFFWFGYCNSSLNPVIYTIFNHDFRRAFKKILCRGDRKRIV

[1] = target: T2, neurotensin receptor subtype 1 (NTR1) (Homo sapiens, UniProt P30989); assay: Competition binding of BT-neurotensin to NTR1 receptor arrays on CMT-GAPS slides; details: BT-NT 2 nM, unlabeled ligand 1 μM
T2 construct: purchased Perkin Elmer Life Science (Boston, Mass.)
T2 sequence (P30989 whole entry): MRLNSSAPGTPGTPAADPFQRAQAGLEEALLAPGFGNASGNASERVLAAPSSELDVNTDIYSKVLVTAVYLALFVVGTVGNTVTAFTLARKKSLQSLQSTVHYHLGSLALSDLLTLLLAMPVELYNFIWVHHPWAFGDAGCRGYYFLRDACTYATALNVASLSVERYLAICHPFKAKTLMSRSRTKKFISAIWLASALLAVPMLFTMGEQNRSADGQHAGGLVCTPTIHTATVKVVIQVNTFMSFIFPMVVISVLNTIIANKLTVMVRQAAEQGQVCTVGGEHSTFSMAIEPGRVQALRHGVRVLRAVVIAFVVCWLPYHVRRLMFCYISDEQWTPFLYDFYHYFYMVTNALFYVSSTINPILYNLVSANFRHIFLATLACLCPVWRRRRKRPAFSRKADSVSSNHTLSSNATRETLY

Gi1 = Gi1 (Homo sapiens, UniProt P63096); details: unactivated form, reconstituted vesicle systems (McEwen et al.); cited from earlier work
Gi1, sequence (P63096 whole entry): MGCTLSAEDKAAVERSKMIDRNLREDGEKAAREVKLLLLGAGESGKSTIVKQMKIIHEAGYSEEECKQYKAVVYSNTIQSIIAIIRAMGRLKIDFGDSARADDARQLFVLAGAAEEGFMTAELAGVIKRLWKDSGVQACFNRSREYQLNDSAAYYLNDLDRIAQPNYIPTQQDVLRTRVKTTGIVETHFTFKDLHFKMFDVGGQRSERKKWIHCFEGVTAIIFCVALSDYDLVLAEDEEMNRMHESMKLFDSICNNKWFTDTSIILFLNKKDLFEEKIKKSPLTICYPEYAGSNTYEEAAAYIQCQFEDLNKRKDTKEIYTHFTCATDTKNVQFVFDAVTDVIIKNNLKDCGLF

Gs = Gs (Homo sapiens, UniProt P63092); details: unactivated form, reconstituted vesicle systems (McEwen et al.); cited from earlier work
Gs, sequence (P63092 whole entry): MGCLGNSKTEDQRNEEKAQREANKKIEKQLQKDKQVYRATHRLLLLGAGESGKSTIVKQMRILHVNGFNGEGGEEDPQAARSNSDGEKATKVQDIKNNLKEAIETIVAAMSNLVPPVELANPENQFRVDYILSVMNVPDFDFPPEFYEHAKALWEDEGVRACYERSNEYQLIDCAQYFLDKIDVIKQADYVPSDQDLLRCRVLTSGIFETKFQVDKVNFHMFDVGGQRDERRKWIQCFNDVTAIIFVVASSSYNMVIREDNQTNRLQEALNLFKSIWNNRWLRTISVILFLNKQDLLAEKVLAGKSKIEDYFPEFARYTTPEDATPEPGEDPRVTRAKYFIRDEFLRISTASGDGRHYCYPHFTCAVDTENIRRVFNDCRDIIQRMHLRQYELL

Gi2 = Gi2 (Homo sapiens, UniProt P04899); details: unactivated form, reconstituted vesicle systems (McEwen et al.); cited from earlier work
Gi2, sequence (P04899 whole entry): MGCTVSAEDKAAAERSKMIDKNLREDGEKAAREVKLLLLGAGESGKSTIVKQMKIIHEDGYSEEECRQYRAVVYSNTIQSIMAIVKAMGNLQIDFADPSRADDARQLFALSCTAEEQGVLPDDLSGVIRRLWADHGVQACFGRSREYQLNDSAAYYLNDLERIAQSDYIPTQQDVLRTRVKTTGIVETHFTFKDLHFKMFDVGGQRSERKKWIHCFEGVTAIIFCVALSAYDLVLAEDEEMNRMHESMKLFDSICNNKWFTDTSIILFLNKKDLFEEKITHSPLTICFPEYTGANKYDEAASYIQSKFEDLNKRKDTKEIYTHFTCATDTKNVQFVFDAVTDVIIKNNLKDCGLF

Go = Go (Homo sapiens, UniProt P09471); details: unactivated form, reconstituted vesicle systems (McEwen et al.); cited from earlier work
Go, sequence (P09471 whole entry): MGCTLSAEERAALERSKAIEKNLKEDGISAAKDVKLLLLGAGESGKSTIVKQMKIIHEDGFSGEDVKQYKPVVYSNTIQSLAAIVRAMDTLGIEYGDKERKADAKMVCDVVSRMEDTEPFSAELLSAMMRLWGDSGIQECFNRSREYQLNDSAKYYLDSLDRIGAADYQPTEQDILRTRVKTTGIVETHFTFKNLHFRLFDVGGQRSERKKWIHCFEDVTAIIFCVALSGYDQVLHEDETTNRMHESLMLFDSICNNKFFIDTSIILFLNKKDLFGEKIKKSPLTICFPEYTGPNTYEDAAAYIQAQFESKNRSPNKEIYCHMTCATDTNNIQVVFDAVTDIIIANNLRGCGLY

β1, sequence (P08588 whole entry): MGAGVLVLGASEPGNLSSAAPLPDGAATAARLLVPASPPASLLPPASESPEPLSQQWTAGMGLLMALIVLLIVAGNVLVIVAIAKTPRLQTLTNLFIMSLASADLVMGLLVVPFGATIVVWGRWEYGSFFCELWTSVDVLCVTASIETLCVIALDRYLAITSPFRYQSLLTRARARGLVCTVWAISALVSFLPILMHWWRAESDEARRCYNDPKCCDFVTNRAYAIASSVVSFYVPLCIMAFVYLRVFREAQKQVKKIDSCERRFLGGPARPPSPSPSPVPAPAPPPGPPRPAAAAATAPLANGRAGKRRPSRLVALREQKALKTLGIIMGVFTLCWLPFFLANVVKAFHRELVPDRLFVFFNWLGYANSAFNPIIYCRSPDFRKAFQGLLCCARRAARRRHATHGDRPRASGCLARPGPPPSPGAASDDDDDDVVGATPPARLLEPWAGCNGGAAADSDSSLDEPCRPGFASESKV

In the case of Cc1ccc(OCC(O)C(C)NC(C)C)c2c1CCC2 (centres unmarked) [ICI 118551], the “fluorescence intensity of the β1 receptors” value (β1; 5 nM BODIPY-TMR-CGP12177, 10 nM ICI118551) is given as “remains almost at the same level”, the “fluorescence intensity of β1” value (β1; 5 nM BODIPY-TMR-CGP12177, 500 nM ICI118551) is given as “dramatically decreases” and the Ki (α2A) is given as over 10000 nM.

With CC(C)(C)NCC(O)COc1cccc2[nH]c(=O)[nH]c12 (centres unmarked) [CGP12177] the “effect on intensities of NTR1 spots (inhibition of BT-NT binding)” value [1] was “no significant decrease”.

In the case of BODIPY-FL-GTPγS, the Kd (Gi1) is given as 150 nM, the Kd (Gs) is given as 70 nM and the Kd (Gi2) is given as 300 nM. The Kd (Go) was 6 nM.
